Test results from patent publication US20240343706A1, “PIPERIDINE-2,6-DIONE DERIVATIVES WHICH BIND TO CEREBLON, AND METHODS OF USE THEREOF” (Captor Therapeutics S.A., priority 2019, published 2024).
One block for each compound: values may come before it.

Assays:
[1] = target: CRBN-DDB1 protein complex (Homo sapiens, UniProt Q96SW2); test: Fluorescence polarization (FP) assay, displacement of Cy5-labelled thalidomide; conditions: 25 nM CRBN-DDB1, 5 nM Cy5-labelled thalidomide, read-out: CRBN binding Ki
Sequence of CRBN-DDB1 protein complex (Q96SW2 whole entry): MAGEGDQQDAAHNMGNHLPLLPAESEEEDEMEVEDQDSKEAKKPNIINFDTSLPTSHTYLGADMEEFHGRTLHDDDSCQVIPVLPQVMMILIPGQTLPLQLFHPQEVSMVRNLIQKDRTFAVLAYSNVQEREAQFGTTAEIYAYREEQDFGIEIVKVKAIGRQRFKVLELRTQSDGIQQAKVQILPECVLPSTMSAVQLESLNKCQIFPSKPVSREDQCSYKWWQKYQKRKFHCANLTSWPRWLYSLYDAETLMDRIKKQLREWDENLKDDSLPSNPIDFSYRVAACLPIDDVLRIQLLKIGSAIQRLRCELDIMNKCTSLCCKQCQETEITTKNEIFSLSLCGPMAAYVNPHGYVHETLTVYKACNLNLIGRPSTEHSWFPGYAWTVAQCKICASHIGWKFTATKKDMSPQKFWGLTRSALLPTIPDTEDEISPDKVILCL
Sequence of CRBN-DDB1 protein complex (Q16531 whole entry partner): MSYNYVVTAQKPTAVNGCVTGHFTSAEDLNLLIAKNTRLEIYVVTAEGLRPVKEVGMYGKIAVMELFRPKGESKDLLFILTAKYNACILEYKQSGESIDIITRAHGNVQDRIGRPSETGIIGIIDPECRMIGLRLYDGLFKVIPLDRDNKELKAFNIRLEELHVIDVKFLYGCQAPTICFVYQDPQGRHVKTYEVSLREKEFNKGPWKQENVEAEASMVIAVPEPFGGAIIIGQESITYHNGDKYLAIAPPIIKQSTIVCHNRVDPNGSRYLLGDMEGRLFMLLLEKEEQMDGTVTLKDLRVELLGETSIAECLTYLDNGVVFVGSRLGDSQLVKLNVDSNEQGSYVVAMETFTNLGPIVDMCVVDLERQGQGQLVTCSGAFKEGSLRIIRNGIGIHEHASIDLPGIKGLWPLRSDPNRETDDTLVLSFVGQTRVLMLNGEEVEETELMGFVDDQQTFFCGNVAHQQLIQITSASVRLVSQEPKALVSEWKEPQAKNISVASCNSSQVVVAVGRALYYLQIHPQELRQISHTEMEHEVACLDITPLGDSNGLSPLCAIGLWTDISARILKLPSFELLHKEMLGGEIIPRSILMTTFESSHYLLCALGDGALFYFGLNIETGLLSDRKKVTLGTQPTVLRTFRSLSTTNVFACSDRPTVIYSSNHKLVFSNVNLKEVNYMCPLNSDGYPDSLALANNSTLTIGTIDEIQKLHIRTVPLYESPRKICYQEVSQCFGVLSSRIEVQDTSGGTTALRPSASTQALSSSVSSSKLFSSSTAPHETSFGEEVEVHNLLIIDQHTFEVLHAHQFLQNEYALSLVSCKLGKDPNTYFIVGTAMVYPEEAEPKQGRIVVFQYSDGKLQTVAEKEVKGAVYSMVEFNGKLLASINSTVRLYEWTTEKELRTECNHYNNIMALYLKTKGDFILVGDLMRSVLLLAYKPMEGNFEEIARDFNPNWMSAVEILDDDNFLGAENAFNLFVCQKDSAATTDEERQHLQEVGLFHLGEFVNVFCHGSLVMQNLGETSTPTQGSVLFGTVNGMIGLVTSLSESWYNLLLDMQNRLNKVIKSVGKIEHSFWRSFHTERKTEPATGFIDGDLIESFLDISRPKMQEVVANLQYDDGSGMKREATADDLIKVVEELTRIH
Protocol: CRBN-DDB1 protein complex was mixed with Cy5-labelled thalidomide and a compound to be tested (the “test compound”). […] The test solution was added to a 384-well assay plate.
The plate was spun-down (1 min, 1000 rpm, 22° C.) and then shaken using a VibroTurbulator for 10 min at room temperature (20-25° C.), with the frequency set to level 3. The assay plate with protein and the tracer was incubated for 60 min at room temperature (20-25° C.) prior to read-out with a plate reader.
The FP experiment was carried out with various concentrations of the test compounds in order to measure Ki values.

SALL4 = SALL4 degradation assay, Kelly cell line (western blot densitometry); format: cell-based; conditions: Kelly cells; for % of protein reduction based on densitometry values, SALL4 (24 H): summary Table 10, 20 μM (some compounds 10 and 20 μM); for % of SALL4 protein reduction, based on densitometry values: 24 h
Excerpt: (§1) After primary and secondary Ab staining, the membranes were washed and signals developed. The densitometry analysis was implemented to obtain the numeric values used later in the protein level evaluation process.

CK1α = CK1α degradation assay, Kelly cell line (western blot densitometry); format: cell-based; conditions: Kelly cells; for % of protein reduction based on densitometry values, CK1α (24 H): summary Table 10, 20 μM (some compounds 10 and 20 μM); for % of CK1α protein reduction, based on densitometry values: 24 h
Excerpt: as §1

IKZF1 = IKZF1 degradation assay, H929 cell line (western blot densitometry); format: cell-based; conditions: H929 cells; for % of protein reduction based on densitometry values, IKZF 1 (24 H): summary Table 10, 20 μM (some compounds 10 and 20 μM); for % of IKZF1 α protein reduction based on densitometry values: 24 h
Excerpt: as §1

IKZF3 = IKZF3 degradation assay, H929 cell line (western blot densitometry); format: cell-based; conditions: H929 cells; for % of IKZF3 protein reduction based on densitometry values, IKZF3 Band I / % of IKZF3 protein reduction based on densitometry values, IKZF3 Band II: 24 h; for % of protein reduction based on densitometry values, IKZF3 (24 H): summary Table 10, 10 and 20 μM

Ki [1]: < 1000 nM
SMILES: Cc1nc2c(C(=O)NC3CCC(=O)NC3=O)cccc2[nH]1 (stereo not shown) [Compound 15, N-(2,6-dioxopiperidin-3-yl)-2-methyl-1H-benzo[d]imidazole-4-carboxamide]
% of protein reduction based on densitometry values, SALL4 (24 H) (SALL4): ≤25% (≤25% for 0-25% of SALL4 protein reduction)
% of protein reduction based on densitometry values, CK1α (24 H) (CK1α): ≤25% (≤25% for 0-25% of CK1a protein reduction)
% of protein reduction based on densitometry values, IKZF 1 (24 H) (IKZF1): ≤25% (≤25% for 0-25% of IKZF1 protein reduction)
% of IKZF3 protein reduction based on densitometry values, IKZF3 Band I (IKZF3; 10 μM): ≤25% (≤25% for 0-25% of IKZF3 protein reduction)
% of IKZF3 protein reduction based on densitometry values, IKZF3 Band II (IKZF3; 10 μM): ≤25% (≤25% for 0-25% of IKZF3 protein reduction)
% of IKZF3 protein reduction based on densitometry values, IKZF3 Band I (IKZF3; 20 μM): ≤25% (≤25% for 0-25% of IKZF3 protein reduction)
% of IKZF3 protein reduction based on densitometry values, IKZF3 Band II (IKZF3; 20 μM): ≤25% (≤25% for 0-25% of IKZF3 protein reduction)
% of protein reduction based on densitometry values, IKZF3 (24 H) (IKZF3): ≤25% (≤25% for 0-25% of IKZF3 protein reduction)

Ki [1]: < 1000 nM
SMILES: COc1cc(C(=O)NC2CCC(=O)NC2=O)c2nc(C)[nH]c2c1 (stereo not shown) [Compound 30, N-(2,6-dioxopiperidin-3-yl)-6-methoxy-2-methyl-1H-benzo[d]imidazole-4-carboxamide]
% of protein reduction based on densitometry values, SALL4 (24 H) (SALL4): ≤25% (≤25% for 0-25% of SALL4 protein reduction)
% of protein reduction based on densitometry values, CK1α (24 H) (CK1α): ≤25% (≤25% for 0-25% of CK1a protein reduction)
% of protein reduction based on densitometry values, IKZF 1 (24 H) (IKZF1): ≤25% (≤25% for 0-25% of IKZF1 protein reduction)
% of IKZF3 protein reduction based on densitometry values, IKZF3 Band I (IKZF3; 10 μM): ≤25% (≤25% for 0-25% of IKZF3 protein reduction)
% of IKZF3 protein reduction based on densitometry values, IKZF3 Band II (IKZF3; 10 μM): ≤25% (≤25% for 0-25% of IKZF3 protein reduction)
% of IKZF3 protein reduction based on densitometry values, IKZF3 Band I (IKZF3; 20 μM): ≤25% (≤25% for 0-25% of IKZF3 protein reduction)
% of IKZF3 protein reduction based on densitometry values, IKZF3 Band II (IKZF3; 20 μM): ≤25% (≤25% for 0-25% of IKZF3 protein reduction)
% of protein reduction based on densitometry values, IKZF3 (24 H) (IKZF3): ≤25% (≤25% for 0-25% of IKZF3 protein reduction)

Ki [1]: 1000 to 10000 nM
SMILES: Cc1nc2c(C(=O)NC3CCC(=O)NC3=O)cncc2[nH]1 (stereo not shown) [Compound 35, N-(2,6-dioxopiperidin-3-yl)-2-methyl-3H-imidazo[4,5-c]pyridine-7-carboxamide]
% of SALL4 protein reduction, based on densitometry values (SALL4; 10 μM): ≤25% (≤25% for 0-25% of SALL4 protein reduction)
% of SALL4 protein reduction, based on densitometry values (SALL4; 20 μM): ≤25% (≤25% for 0-25% of SALL4 protein reduction)
% of protein reduction based on densitometry values, SALL4 (24 H) (SALL4): ≤25% (≤25% for 0-25% of SALL4 protein reduction)
% of CK1α protein reduction, based on densitometry values (CK1α; 10 μM): ≤25% (≤25% for 0-25% of CK1a protein reduction)
% of CK1α protein reduction, based on densitometry values (CK1α; 20 μM): ≤25% (≤25% for 0-25% of CK1a protein reduction)
% of protein reduction based on densitometry values, CK1α (24 H) (CK1α): ≤25% (≤25% for 0-25% of CK1a protein reduction)
% of IKZF1 α protein reduction based on densitometry values (IKZF1; 10 μM): ≤25% (≤25% for 0-25% of IKZF1 protein reduction)
% of IKZF1 α protein reduction based on densitometry values (IKZF1; 20 μM): ≤25% (≤25% for 0-25% of IKZF1 protein reduction)
% of protein reduction based on densitometry values, IKZF 1 (24 H) (IKZF1): ≤25% (≤25% for 0-25% of IKZF1 protein reduction)
% of IKZF3 protein reduction based on densitometry values, IKZF3 Band I (IKZF3; 10 μM): ≤25% (≤25% for 0-25% of IKZF3 protein reduction)
% of IKZF3 protein reduction based on densitometry values, IKZF3 Band II (IKZF3; 10 μM): ≤25% (≤25% for 0-25% of IKZF3 protein reduction)
% of IKZF3 protein reduction based on densitometry values, IKZF3 Band I (IKZF3; 20 μM): ≤25% (≤25% for 0-25% of IKZF3 protein reduction)
% of IKZF3 protein reduction based on densitometry values, IKZF3 Band II (IKZF3; 20 μM): ≤25% (≤25% for 0-25% of IKZF3 protein reduction)
% of protein reduction based on densitometry values, IKZF3 (24 H) (IKZF3): ≤25% (≤25% for 0-25% of IKZF3 protein reduction)

The remaining lines, values behind:

SMILES: CC(C)Cc1nc2c(C(=O)NC3CCC(=O)NC3=O)cccc2[nH]1 (stereo not shown) [Compound 24, N-(2,6-dioxopiperidin-3-yl)-2-isobutyl-1H-benzo[d]imidazole-7-carboxamide]
Ki [1]: 1000 to 10000 nM
% of protein reduction based on densitometry values, SALL4 (24 H) (SALL4): ≤25% (≤25% for 0-25% of SALL4 protein reduction)
% of protein reduction based on densitometry values, CK1α (24 H) (CK1α): ≤25% (≤25% for 0-25% of CK1a protein reduction)
% of protein reduction based on densitometry values, IKZF 1 (24 H) (IKZF1): ≤25% (≤25% for 0-25% of IKZF1 protein reduction)

SMILES: O=C1CCC(NC(=O)c2cccc3[nH]c(C(F)(F)F)nc23)C(=O)N1 (stereo not shown) [Compound 25, N-(2,6-dioxopiperidin-3-yl)-2-(trifluoromethyl)-1H-benzo[d]imidazole-7-carboxamide]
Ki [1]: < 1000 nM
% of protein reduction based on densitometry values, SALL4 (24 H) (SALL4): ≤25% (≤25% for 0-25% of SALL4 protein reduction)
% of protein reduction based on densitometry values, CK1α (24 H) (CK1α): ≤25% (≤25% for 0-25% of CK1a protein reduction)
% of protein reduction based on densitometry values, IKZF 1 (24 H) (IKZF1): ≤25% (≤25% for 0-25% of IKZF1 protein reduction)

SMILES: Cc1nc2c(C(=O)NC3CCC(=O)NC3=O)ccnc2[nH]1 (stereo not shown) [Compound 36, N-(2,6-dioxopiperidin-3-yl)-2-methyl-3H-imidazo[4,5-b]pyridine-7-carboxamide]
Ki [1]: 1000 to 10000 nM
% of protein reduction based on densitometry values, SALL4 (24 H) (SALL4): ≤25% (≤25% for 0-25% of SALL4 protein reduction)
% of protein reduction based on densitometry values, CK1α (24 H) (CK1α): ≤25% (≤25% for 0-25% of CK1a protein reduction)
% of protein reduction based on densitometry values, IKZF 1 (24 H) (IKZF1): ≤25% (≤25% for 0-25% of IKZF1 protein reduction)

SMILES: O=C1CCC(NC(=O)c2ccnc3cc[nH]c23)C(=O)N1 (stereo not shown) [Compound 37, N-(2,6-dioxopiperidin-3-yl)-1H-pyrrolo[3,2-b]pyridine-7-carboxamide]
Ki [1]: 10000 to 50000 nM
% of protein reduction based on densitometry values, SALL4 (24 H) (SALL4): ≤25% (≤25% for 0-25% of SALL4 protein reduction)
% of protein reduction based on densitometry values, CK1α (24 H) (CK1α): ≤25% (≤25% for 0-25% of CK1a protein reduction)
% of protein reduction based on densitometry values, IKZF 1 (24 H) (IKZF1): ≤25% (≤25% for 0-25% of IKZF1 protein reduction)

SMILES: O=C1CCC(NC(=O)c2cccc3cnsc23)C(=O)N1 (stereo not shown) [Compound 50, N-(2,6-dioxopiperidin-3-yl)benzo[d]isothiazole-7-carboxamide]
Ki [1]: 1000 to 10000 nM
% of SALL4 protein reduction, based on densitometry values (SALL4; 10 μM): ≤25% (≤25% for 0-25% of SALL4 protein reduction)
% of SALL4 protein reduction, based on densitometry values (SALL4; 20 μM): ≤25% (≤25% for 0-25% of SALL4 protein reduction)
% of protein reduction based on densitometry values, SALL4 (24 H) (SALL4): ≤25% (≤25% for 0-25% of SALL4 protein reduction)
% of CK1α protein reduction, based on densitometry values (CK1α; 10 μM): ≤25% (≤25% for 0-25% of CK1a protein reduction)
% of CK1α protein reduction, based on densitometry values (CK1α; 20 μM): ≤25% (≤25% for 0-25% of CK1a protein reduction)
% of protein reduction based on densitometry values, CK1α (24 H) (CK1α): ≤25% (≤25% for 0-25% of CK1a protein reduction)
% of IKZF1 α protein reduction based on densitometry values (IKZF1; 10 μM): ≤25% (≤25% for 0-25% of IKZF1 protein reduction)
% of IKZF1 α protein reduction based on densitometry values (IKZF1; 20 μM): ≤25% (≤25% for 0-25% of IKZF1 protein reduction)
% of protein reduction based on densitometry values, IKZF 1 (24 H) (IKZF1): ≤25% (≤25% for 0-25% of IKZF1 protein reduction)
% of IKZF3 protein reduction based on densitometry values, IKZF3 Band I (IKZF3; 10 μM): ≤25% (≤25% for 0-25% of IKZF3 protein reduction)
% of IKZF3 protein reduction based on densitometry values, IKZF3 Band II (IKZF3; 10 μM): ≤25% (≤25% for 0-25% of IKZF3 protein reduction)
% of IKZF3 protein reduction based on densitometry values, IKZF3 Band I (IKZF3; 20 μM): ≤25% (≤25% for 0-25% of IKZF3 protein reduction)
% of IKZF3 protein reduction based on densitometry values, IKZF3 Band II (IKZF3; 20 μM): ≤25% (≤25% for 0-25% of IKZF3 protein reduction)
% of protein reduction based on densitometry values, IKZF3 (24 H) (IKZF3): ≤25% (≤25% for 0-25% of IKZF3 protein reduction)
